According to patent US10251874B2, “Crystalline forms of a JAK inhibitor compound” (THERAVANCE BIOPHARMA R&D IP, LLC, priority 2017, dated 2019):
Read-outs that look alike come from different tables or passages of the source.

Columns and labels:
[1] = tested on: IL-13 induced STAT6 phosphorylation in BEAS-2B human lung epithelial cells; experiment: Assay 2: Cellular JAK potency assay: inhibition of IL-13 (AlphaScreen); type: cell-based; conditions: BEAS-2B cells, read-out: pIC50, inhibition of IL-13 induced STAT6 phosphorylation (converted)
Method: The AlphaScreen JAM cellular potency assay was carried out by measuring interleukin-13 (IL-13, R&D Systems) induced STAT6 phosphorylation in BEAS-2B human lung epithelial cells (ATCC). The anti-STAT6 antibody (Cell Signaling Technologies) was conjugated to AlphaScreen acceptor beads (Perkin Elmer), while the anti-pSTAT6 (pTyr641) antibody (Cell Signaling Technologies) was biotinylated using EZ-Link Sulfo-NHS-Biotin (Thermo Scientific).
BEAS-2B cells were grown at 37° C. in a 5% CO2 humidified incubator in 50% DMEM/50% F-12 medium (Life Technologies) supplemented with 10% FBS (Hyclone), 100 U/mL penicillin, 100 μg/mL streptomycin (Life Technologies), and 2 mM
GlutaMAX (Life Technologies). On day 1 of the assay, cells were seeded at a 7,500 cells/well density in white poly-D-lysine-coated 384-well plates (Corning) with 25 μL medium, and were allowed to adhere overnight in the incubator. […] After a minimum of 2 h incubation, the assay plates were read on the EnVision plate reader. AlphaScreen luminescence signals were recorded and utilized to calculate the percent inhibition values based on DMSO and background controls.
For dose-response analysis, percent inhibition data were plotted vs. compound concentrations, and IC50 values were determined from a 4-parameter robust fit model with the Prism software. Results may also be expressed as the negative logarithm of the IC50 value, pIC50.

[2] = Assay 8: Pharmacokinetics in plasma and lung in mouse; type: in vivo, BALB/c mice; conditions: BALB/c, 10 µg/mouse, oral aspiration, 0.2 mg/mL, 50 uL, read-out: exposure in lung relative to exposure in plasma (lung AUC to plasma AUC ratio)
Method: Plasma and lung levels of test compounds and ratios thereof were determined in the following manner. BALB/c mice from Charles River Laboratories were used in the assay. Test compounds were individually formulated in 20% propylene glycol in pH 4 citrate buffer at a concentration of 0.2 mg/mL and 50 uL of the dosing solution was introduced into the trachea of a mouse by oral aspiration. At various time points (typically 0.167, 2, 6, 24 hr) post dosing, blood samples were removed via cardiac puncture and intact lungs were excised from the mice. Blood samples were centrifuged (Eppendorf centrifuge, 5804R) for 4 minutes at approximately 12,000 rpm at 4° C. to collect plasma. Lungs were padded dry, weighed, and homogenized at a dilution of 1:3 in sterile water. Plasma and lung levels of test compound were determined by LC-MS analysis against analytical standards constructed into a standard curve in the test matrix. A lung to plasma ratio was determined as the ratio of the lung AUC in μg hr/g to the plasma AUC in μg hr/mL, where AUC is conventionally defined as the area under the curve of test compound concentration vs. time.

[3] = tested on: IL-13 induced pSTAT6 in lung tissue; experiment: Assay 9: Murine model of IL-13 induced pSTAT6 induction in lung tissue; type: in vivo, balb/c mice; conditions: mouse, 0.5 mg/mL 50 μL oral aspiration; after IL-13 challenge (so in the source)
Method: 11-13 is an important cytokine underlying the pathophysiology of asthma (Kudlacz et al. Eur. J. Pharmacol, 2008, 582,154-161). IL-13 binds to cell surface receptors activating members of the Janus family of kinases (JAK) which then phosphorylate STAT6 and subsequently activates further transcription pathways. In the described model, a dose of IL-13 was delivered locally into the lungs of mice to induce the phosphorylation of STAT6 (pSTAT6) which is then measured as the endpoint.
Adult balb/c mice from Harlan were used in the assay. On the day of study, animals were lightly anesthetized with isoflurane and administered either vehicle or test compound (0.5 mg/mL, 50 μL total volume over several breaths) via oral aspiration. Animals were placed in lateral recumbency post dose and monitored for full recovery from anesthesia before being returned to their home cage. Four hours later, animals were once again briefly anesthetized and challenged with either vehicle or IL-13 (0.03 μg total dose delivered, 50 μL total volume) via oral aspiration before being monitored for recovery from anesthesia and returned to their home cage. […] using an anti-pSTAT6 ELISA (rabbit mAb capture/coating antibody; mouse mAb detection/report antibody: anti-pSTAT6-pY641; secondary antibody: anti-mouse IgG-HRP) and analyzed for total drug concentration as described above in Assay 12. […]

[4] = tested on: IL-2, IL-4, IL-6, and IFNγ signaling; experiment: Cellular assays of Assays 3 to 7 (summary statement); type: cell-based; conditions: Homo sapiens, summary over cellular Assays 3 to 7

CCc1cc(O)c(F)cc1-c1ccc2c(-c3nc4c([nH]3)CCN(C3CCN(C)CC3)C4)n[nH]c2c1 [Compound 1, 5-ethyl-2-fluoro-4-(3-(5-(1-methylpiperidin-4-yl)-4,5,6,7-tetrahydro-1H-imidazo[4,5-c]pyridin-2-yl)-1H-indazol-6-yl)phenol]
IC50 [1]: 6.31 nM
Kp [2]: ~55
inhibition of STAT6 phosphorylation in lung [3]: about 60%
IC50 ([4]; read-out: IC50 for inhibition of IL-2, IL-4, IL-6, and IFNγ signaling): ≤ 200 nM
IC50 ([4]; read-out: pIC50 for inhibition of IL-2, IL-4, IL-6, and IFNγ signaling (converted)): ≤ 200 nM
